From ChEMBL document CHEMBL1145267, “Antioxidant and antiproliferative activity of curcumin semicarbazone” (2005)

Experiments:
Assay type in all cases: functional
MCF7 = assay: Compound tested for percent viability of human MCF-7 cell line at 1 mg/mL concentration after 24 hrs by MTT method
Rattus norvegicus [1] = species on record: Rattus norvegicus; assay: Compound (10 uM) tested for percent inhibition of […] induced lipid peroxidation in rat liver microsomes; Range 85-54%
Rattus norvegicus [2] = species on record: Rattus norvegicus; assay: Compound (10 uM) tested for percent inhibition of […] induced lipid peroxidation in rat liver microsomes; Range 80-60%

| Compound | Viability (MCF7) [%] | inhibition (Rattus norvegicus [1]) [%] | inhibition (Rattus norvegicus [2]) [%] |
| --- | --- | --- | --- |
| COc1cc(/C=C/C(=O)CC(/C=C/c2ccc(O)c(OC)c2)=N/NC(N)=O)ccc1O | 26 | 85 |  |
| COc1cc(/C=C/C(=O)CC(=O)/C=C/c2ccc(O)c(OC)c2)ccc1O [CURCUMIN] | 64 |  | 80 |
